Test results: US20250250646A1, “DUAL GENETIC REPORTERS IN HUMAN PLURIPOTENT CELLS FOR USE AS ALTERNATIVE TO MOUSE EMBRYO ASSAY” (Nexpring US Opco Inc., priority 2022, published 2025)

Tests used:
CGA-snLuc cells = settings: MEAlt assays; low levels of adulterant
Description: (§1) To perform this assay, cells from the cell lines described in Example 1 were thawed using standard procedures and plated on Vitronectin coated wells of a 96-well plate in Essential 8 Flex medium with Revitacell supplement. Plating density for SOX2-snLuc cells was approximately 20,000 cells per well and for the CGA-snLuc cells, approximately 15,000 cells per well. Empty wells were filled with PBS to reduce variation in Nanoluciferase concentration related to evaporation. Cells were allowed to recover for 7-18 hours prior to exposure to test media.
For CGA-snLuc cells the activation of the reporter required medium that supported trophectoderm/placental differentiation, such as BAP medium. […] DAF-BAP contained DMEM with 25 mM HEPES and 4.5 g/L Glucose and without L-Glutamine, 100 ng/ml BMP-4, 1 μM A83-01, 0.1 μM PD173074, 5 mg/mL of AlbumiNZ Bovine Albumin Low Free Fatty Acid, and 40 μM forskolin. Media was pre-warmed prior to forskolin addition to prevent precipitation.
Following recovery from thawing, media was exchanged to the respective test medium for each cell line. […] Secreted Nanoluciferase was detected by removing 10% of the culture media and mixing in a white assay plate with substrate and buffer using the Promega Nano-Glo Luciferase Assay kit. Luminescence was measured with a BioTek Cytation 1 imaging reader. […]

SOX2-snLuc cells = settings: MEAlt assays; low levels of adulterant
Description: as §1
For SOX2-snLuc cells the test media was Essential 8 Flex.
Following recovery from thawing, media was exchanged to the respective test medium for each cell line. […] In the case of SOX2-snLuc cells, a baseline read of Luciferase expression was optionally performed prior to media exchange to assess variations in plating density or post-thaw recovery. Exposure to test medium was for 24-96 hours for SOX2-snLuc cells and 48-96 hours for CGA-snLuc cells. Secreted Nanoluciferase was detected by removing 10% of the culture media and mixing in a white assay plate with substrate and buffer using the Promega Nano-Glo Luciferase Assay kit. Luminescence was measured with a BioTek Cytation 1 imaging reader.
The assay was also tested in the context of detecting an adulterant, ethylene glycol (EG), that is known to affect viability of mouse embryos.

Row | Compound | detection of adulterant by the MEAlt assay (CGA-snLuc cells) | detection of adulterant by the MEAlt assay (SOX2-snLuc cells)
1 | C=O [formaldehyde] | successfully detect low levels | successfully detect low levels
2 | triton-x-100 | successfully detect low levels | successfully detect low levels
